Experimental data reported in patent US8980905B2, “Benzodioxole or benzodioxepine heterocyclic compounds as phosphodiesterase inhibitors” (Leo Pharma A/S, priority 2010, dated 2015).

biological target: Human recombinant PDE4 (Genbank accession no NM-006203) (Homo sapiens (Human), UniProt Q08499); test: PDE4 Assay (SPA, cAMP cleavage); assay type: biochemical; conditions: human recombinant PDE4, 1 hour incubation, cAMP 1x10-5 M; read-out: IC50 (PDE4)
Experimental: Human recombinant PDE4 (Genbank accession no NM_006203) was incubated for 1 hour, with the test compound at concentrations up to 10 μM, with cAMP (1×10^-5M), and with a low amount (0.021 MBq) of radioactively labelled cAMP. At the end of the incubation, the cleavage of the substrate was evaluated by the binding of the AMP product to SPA beads, which generate chemoluminescence when bound to the radioactive tracer. The AMP product inhibited the binding of the radioactive tracer to the beads, and the luminescent signal was competed.
The results were calculated as the molar concentrations resulting in 50% inhibition of the substrate cleavage compared to controls samples, and are expressed as IC50 (M).

Human recombinant PDE4 (Genbank accession no NM-006203), sequence (Q08499 other isoform, or with tags, fused parts or gaps): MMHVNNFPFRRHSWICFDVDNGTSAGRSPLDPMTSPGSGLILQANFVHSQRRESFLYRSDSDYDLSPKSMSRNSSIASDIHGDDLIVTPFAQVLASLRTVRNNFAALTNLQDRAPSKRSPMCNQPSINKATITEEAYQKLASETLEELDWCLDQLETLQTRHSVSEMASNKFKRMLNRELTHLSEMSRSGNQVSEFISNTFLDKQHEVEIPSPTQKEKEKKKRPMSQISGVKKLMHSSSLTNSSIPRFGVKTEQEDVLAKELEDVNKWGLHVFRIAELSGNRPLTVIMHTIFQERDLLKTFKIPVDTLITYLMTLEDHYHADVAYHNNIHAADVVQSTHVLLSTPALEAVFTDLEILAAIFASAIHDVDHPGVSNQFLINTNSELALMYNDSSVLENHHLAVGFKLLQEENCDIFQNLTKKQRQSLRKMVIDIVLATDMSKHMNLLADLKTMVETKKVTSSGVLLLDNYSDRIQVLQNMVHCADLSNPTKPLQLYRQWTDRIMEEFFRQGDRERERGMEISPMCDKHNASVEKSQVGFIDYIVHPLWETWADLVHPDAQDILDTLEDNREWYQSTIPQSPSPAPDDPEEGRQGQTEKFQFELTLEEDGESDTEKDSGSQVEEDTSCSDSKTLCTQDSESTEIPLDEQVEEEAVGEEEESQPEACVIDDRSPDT

IC50 [nM]	SMILES
6	O=C(Cc1c(Cl)cncc1Cl)c1ccc(OC(F)F)c2c1OCC1(COC1)CO2 [Compound 101, 2-(3,5-Dichloropyridin-4-yl)-1-{9-difluoromethoxy-spiro[2H-1,5-benzodioxepin-3(4H),3′-oxetane]-6-yl}ethanone]
6	O=C(Cc1c(Cl)cncc1Cl)c1ccc(OC(F)F)c2c1OCC1(CCOCC1)CO2 [Compound 103, 2-(3,5-Dichloropyridin-4-yl)-1-{9-difluoromethoxy-spiro[2H-1,5-benzodioxepin-3(4H),4′-tetrahydropyran]-6-yl}ethanone]
4	O=C(Cc1c(Cl)c[n+]([O-])cc1Cl)c1ccc(OC(F)F)c2c1OCC1(CCOCC1)CO2 [Compound 104, 2-(3,5-Dichloro-1-oxido-pyridin-4-yl)-1-{9-difluoromethoxy-spiro[2H-1,5-benzodioxepin-3(4H),4′-tetrahydropyran]-6-yl}ethanone]
7	O=C(Cc1c(Cl)cncc1Cl)c1ccc(OC(F)F)c2c1OC1(CCOCC1)O2 [Compound 105, 2-(3,5-Dichloropyridine-4-yl)-1-(7-difluoromethoxy-2′,3′,5′,6′-tetrahydro-spiro[1,3-benzodioxole-2,4′-(4H)-pyran]-4-yl)ethanone]
5	O=C(Cc1c(Cl)c[n+]([O-])cc1Cl)c1ccc(OC(F)F)c2c1OC1(CCOCC1)O2 [Compound 106, 2-(3,5-Dichloro-1-oxido-pyridine-4-yl)-1-(7-difluoromethoxy-2′,3′,5′,6′-tetrahydro-spiro[1,3-benzodioxole-2,4′-(4H)-pyran]-4-yl)ethanone]
16	O=C(Cc1c(Cl)c[n+]([O-])cc1Cl)c1ccc(OC(F)F)c2c1OC1(CCS(=O)(=O)CC1)O2 [Compound 108, 2-(3,5-Dichloro-1-oxido-pyridine-4-yl)-1-(7-difluoromethoxy-2′,3′,5′,6′-tetrahydro-spiro[1,3-benzodioxole-2, 4′-(4H)-thiopyran-1′,1′-dioxide]-4-yl)ethanone]
13	O=C(Cc1c(Cl)cncc1Cl)c1ccc(OC(F)F)c2c1OC1(CCS(=O)(=O)CC1)O2 [Compound 109, 2-(3,5-Dichloropyridine-4-yl)-1-(7-difluoromethoxy-2′,3′,5′,6′-tetrahydro-spiro[1,3-benzodioxole-2, 4′-(4H)-thiopyran-1′,1′-dioxide]-4-yl)ethanone]
2	O=C(Nc1c(Cl)cncc1Cl)c1ccc(OC(F)F)c2c1OC1(CCSCC1)O2 [Compound 110, N-(3,5-Dichloro-4-pyridyl)-7-Difluoromethoxy-2′,3′,5′,6′-tetrahydro-spiro[1,3-benzodioxole-2,4′-(4H)-thiopyran]-4-carbamide]

SMILES	IC50 [nM]
O=C(Nc1c(Cl)c[n+]([O-])cc1Cl)c1ccc(OC(F)F)c2c1OC1(CCS(=O)(=O)CC1)O2 [Compound 111, N-(3,5-dichloro-1-oxo-4-pyridyl)-7-(difluoromethoxy)-1′,1′-dioxo-spiro[1,3-benzodioxole-2,4′-thiane]-4-carboxamide]	106

same assay, conditions: stated in text of example 15; read-out: PDE4 activity

IC50 [nM]	SMILES
5000	O=C(Cc1c(Cl)cncc1Cl)c1ccc(O)c2c1OC1(CCOCC1)O2 [Compound 403, 2-(3,5-Dichloropyridine-4-yl)-1-(7-hydroxy-2′,3′,5′,6′-tetrahydro-spiro[1,3-benzodioxole-2,4′-(4H)-pyran]-4-yl)ethanone]

tested on: not listed separately; test: In vivo pharmacokinetic analyses in rat; conditions: serum, PO dosing 5 mg/kg, read-out: Serum Cmax of parent compound
Experimental: One rat is dosed orally (5 mg/kg—dissolved in DMSO/H2O/propylenglycol [1:5:4]) and blood samples are taken from the sublingual venous plexus at 30 min, 1 h, 2 h, 4 h and 6 h. Blood samples are taken in BD Vacutainer SST serum separation tubes, serum is isolated by centrifugation, transferred to micronics tubes and subsequently analysed.
Mass spectrometer (API5000 series) parameters are optimised to analyse for the specific compounds and test injections are performed to confirm the validity of the established generic chromatography method. The generic method is based on fast gradient (2.5 min) analysis on C18 column with mobile phases consisting methanol, ammonium acetate, formic acid and water.
Standards are prepared in rat serum to cover the analytical range 0.1 to 300 ng/ml. Standards, blank serum and study samples are applied to 96 deepwell plate and proteins are precipitated by addition of acetonitrile containing internal standard. Samples are analysed on LC-MS/MS usually overnight. Integration and quantification is performed on ration between analyte and internal standard using Analyst software version 1.5. Pharmacokinetic parameters are calculated using a standardised Excel spreadsheet.

Cmax [ng/mL]	SMILES
< 3	O=C(Cc1c(Cl)cncc1Cl)c1ccc(OC(F)F)c2c1OC1(CCOCC1)O2 [Compound 105, 2-(3,5-Dichloropyridine-4-yl)-1-(7-difluoromethoxy-2′,3′,5′,6′-tetrahydro-spiro[1,3-benzodioxole-2,4′-(4H)-pyran]-4-yl)ethanone]
133	O=C(Cc1c(Cl)c[n+]([O-])cc1Cl)c1ccc(OC(F)F)c2c1OC1(CCOCC1)O2 [Compound 106, 2-(3,5-Dichloro-1-oxido-pyridine-4-yl)-1-(7-difluoromethoxy-2′,3′,5′,6′-tetrahydro-spiro[1,3-benzodioxole-2,4′-(4H)-pyran]-4-yl)ethanone]
